Data as given in US9365522B2, “Pyrazole amide derivative” (AMGEN INC., priority 2015, dated 2016).

Molecular target: T1, human RORγ-LBD (Homo sapiens, UniProt P51449)
T1 construct: made in house; host or cells: E. coli (BL-21)
T1 sequence (P51449 262-518): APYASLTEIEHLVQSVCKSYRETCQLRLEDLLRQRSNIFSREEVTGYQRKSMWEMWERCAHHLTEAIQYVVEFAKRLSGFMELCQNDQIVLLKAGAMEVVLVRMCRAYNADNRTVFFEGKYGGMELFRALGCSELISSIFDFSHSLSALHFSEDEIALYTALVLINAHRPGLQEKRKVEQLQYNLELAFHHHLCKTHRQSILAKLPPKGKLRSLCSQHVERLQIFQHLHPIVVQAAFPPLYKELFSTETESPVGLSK
Assay: ROR gamma coactivator peptide recruitment Alphascreen assay (RORγ-LBD binding to GRIP1 coactivator peptide)
Type: biochemical
Details: 5 nM human RORγ-LBD, 30 nM 7-β-hydroxycholesterol, 50 nM biotinylated GRIP1 coactivator peptide, overnight incubation at room temperature; read-out: result (pIC50, RORγ coactivator peptide recruitment Alphascreen assay) (converted)
Outline: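 His/Flag-tagged human RORγ-LBD (aa 262-518, E. coli-expressed, 5 nM) with agonist 7-β-hydroxycholesterol (30 nM) and biotinylated GRIP1 LXXLL peptide (50 nM) in HEPES pH 7.4 buffer, 2.5% DMSO. Compound 1-in-2 dilutions; Alphascreen bead signal read after overnight incubation at room temperature; pIC50 calculated.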

| SMILES | IC50 |
| --- | --- |
| Cc1[nH]c2ccccc2c1CCN(Cc1ccc(Cl)cc1)C(=O)c1cnn([C@H]2CC[C@H](C(=O)O)CC2)c1C(F)(F)F [Example 513, trans-4-(4-((4-chlorobenzyl)(2-(2-methyl-1H-indol-3-yl)ethyl)carbamoyl)-5-(trifluoromethyl)-1H-pyrazol-1-yl)cyclohexanecarboxylic acid] | 33.1 nM |
| C[C@H]1C[C@H](n2ncc(C(=O)N(CC(=O)c3c(Cl)cccc3Cl)CC3CC(C)(C)C3)c2C(F)(F)F)CC[C@H]1C(=O)O [Example 662, (1R,2S,4R)-4-(4-((2-(2,6-dichlorophenyl)-2-oxoethyl)((3,3-dimethylcyclobutyl)methyl)carbamoyl)-5-(trifluoromethyl)-1H-pyrazol-1-yl)-2-methylcyclohexanecarboxylic acid] | 7.08 nM |
| C[C@]1(C(=O)O)CC[C@H](n2ncc(C(=O)N3CC4(CCCC4)C[C@@H]3Cc3c(Cl)cncc3Cl)c2C(F)(F)F)CC1 [Example 582, trans-4-(4-(((3R)-3-((3,5-dichloro-4-pyridinyl)methyl)-2-azaspiro[4.4]non-2-yl)carbonyl)-5-(trifluoromethyl)-1H-pyrazol-1-yl)-1-methylcyclohexanecarboxylic acid] | 22.9 nM |
| CC1(C)CC(CN(CC(=O)c2c(Cl)cccc2Cl)C(=O)c2cnn([C@H]3CC[C@H](C(=O)O)CC3)c2C(F)(F)F)C1 [Example 521, trans-4-(4-((2-(2,6-dichlorophenyl)-2-oxoethyl)((3,3-dimethylcyclobutyl)methyl)carbamoyl) 5-(trifluoromethyl)-1H-pyrazol-1-yl)cyclohexanecarboxylic acid] | 1.86 nM |
| O=C(CN(C(=O)c1cnn([C@H]2CC[C@@H](C(=O)O)CC2)c1C(F)(F)F)C1CC2(CCC2)C1)c1c(Cl)cccc1Cl [Example 613, cis-4-(4-((2-(2,6-dichlorophenyl)-2-oxoethyl)(spiro[3.3]hept-2-yl)carbamoyl)-5-(trifluoromethyl)-1H-pyrazol-1-yl)cyclohexanecarboxylic acid] | 110 nM |
| CC1(C)CCC(N(CCc2c(Cl)cccc2Cl)C(=O)c2cnn([C@H]3CC[C@H](C(=O)O)CC3)c2C(F)(F)F)CC1 [Example 534, trans-4-(4-((2-(2,6-dichlorophenyl)ethyl)(4,4-dimethylcyclohexyl)carbamoyl)-5-(trifluoromethyl)-1H-pyrazol-1-yl)cyclohexanecarboxylic acid] | 7.94 nM |
| C[C@@]1(CN(CCc2c(Cl)cncc2Cl)C(=O)c2cnn([C@H]3CC[C@H](C(=O)O)CC3)c2C(F)(F)F)CCCO1 [Example 552, trans-4-(4-((2-(3,5-dichloro-4-pyridinyl)ethyl)(((2S)-2-methyltetrahydro-2-furanyl)methyl)carbamoyl)-5-(trifluoromethyl)-1H-pyrazol-1-yl)cyclohexanecarboxylic acid] | 331 nM |
| CC(C)[C@@H]1C[C@H](Cc2c(Cl)cncc2Cl)N(C(=O)c2cnn([C@H]3CC[C@](C)(C(=O)O)CC3)c2C(F)(F)F)C1 [Example 746, trans-4-(4-(((2R,4S)-2-((3,5-dichloro-4-pyridinyl)methyl)-4-(2-propanyl)-1-pyrrolidinyl)carbonyl)-5-(trifluoromethyl)-1H-pyrazol-1-yl)-1-methylcyclohexanecarboxylic acid] | 32.4 nM |
| Cc1cc(Cl)c(CCN(CC2CCCCC2)C(=O)c2cnn([C@H]3CC[C@H](C(=O)O)CC3)c2C(F)(F)F)c(Cl)c1 [Example 510, trans-4-(4-((cyclohexylmethyl)(2-(2,6-dichloro-4-methylphenyl)ethyl)carbamoyl)-5-(trifluoromethyl)-1H-pyrazol-1-yl)cyclohexanecarboxylic acid] | 1.78 nM |
| C[C@H](C(=O)O)[C@H]1C[C@H](n2ncc(C(=O)N(CC(=O)c3c(Cl)cccc3Cl)[C@H]3C[C@@H]4[C@H](C3)C4(C)C)c2C(F)(F)F)C1 [Example 772, (S)-2-((1R,3S)-3-(4-((2-(2,6-dichlorophenyl)-2-oxoethyl)((1R,3r,5S)-6,6-dimethylbicyclo[3.1.0]hexan-3-yl)carbamoyl)-5-(trifluoromethyl)-1H-pyrazol-1-yl)cyclobutyl)propanoic acid] | 3.72 nM |

The next lines start with the values.

| IC50 | SMILES |
| --- | --- |
| 5.37 nM | Cc1cc(Cl)c(C(=O)CN(Cc2cc(F)cc(F)c2)C(=O)c2cnn([C@H]3CC[C@@](C)(C(=O)O)CC3)c2C(F)(F)F)c(Cl)n1 [Example 762, trans-4-(4-((2-(2,4-dichloro-6-methyl-3-pyridinyl)-2-oxoethyl)(3,5-difluorobenzyl)carbamoyl)-5-(trifluoromethyl)-1H-pyrazol-1-yl)-1-methylcyclohexanecarboxylic acid] |
| 50.1 nM | C[C@]1(C(=O)O)CC[C@H](n2ncc(C(=O)N(CC(=O)c3c(Cl)cncc3Cl)C[C@H]3CC3(F)F)c2C(F)(F)F)CC1 [Example 819, trans-4-(4-((2-(3,5-dichloro-4-pyridinyl)-2-oxoethyl)(((1R)-2,2-difluorocyclopropyl)methyl)carbamoyl)-5-(trifluoromethyl)-1H-pyrazol-1-yl)-1-methylcyclohexanecarboxylic acid] |
| 2.69 nM | C[C@@H]1C[C@@H](n2ncc(C(=O)N(CC(=O)c3c(Cl)cncc3Cl)CC3(C(F)(F)F)CC3)c2C(F)(F)F)CC[C@@H]1C(=O)O [Example 830, (1S,2R,4S)-4-(4-((2-(3,5-dichloro-4-pyridinyl)-2-oxoethyl)((1-(trifluoromethyl)cyclopropyl)methyl)carbamoyl)-5-(trifluoromethyl)-1H-pyrazol-1-yl)-2-methylcyclohexanecarboxylic acid] |
| 5.89 nM | C[C@H]1C[C@@](C)(C(=O)O)CCC1n1ncc(C(=O)N(CC(=O)c2c(Cl)cncc2Cl)CC(C)(C)C)c1C(F)(F)F (single isomer, unassigned) [Example 843] |
| 355 nM | C[C@]1(C(=O)O)CC[C@H](n2ncc(C(=O)N(CC(=O)c3c(Cl)cccc3Cl)[C@@H]3CCOC4(CCC4)C3)c2C(F)(F)F)CC1 [Example 654, trans-4-(4-((2-(2,6-dichlorophenyl)-2-oxoethyl)((8R)-5-oxaspiro[3.5]non-8-yl)carbamoyl)-5-(trifluoromethyl)-1H-pyrazol-1-yl)-1-methylcyclohexanecarboxylic acid] |
| 2.45 nM | Cc1cc(Cl)c(C(=O)CN(CCC(C)C)C(=O)c2cnn([C@H]3CC[C@](C)(C(=O)O)CC3)c2C(F)(F)F)c(Cl)c1 [Example 704, trans-4-(4-((2-(2,6-dichloro-4-methylphenyl)-2-oxoethyl)(3-methylbutyl)carbamoyl)-5-(trifluoromethyl)-1H-pyrazol-1-yl)-1-methylcyclohexanecarboxylic acid] |
| 331 nM | CC(C)(C)CN(CC(=O)c1c(Cl)cncc1Cl)C(=O)c1cnn([C@@H]2CCCC[C@H]2CC(=O)O)c1C(F)(F)F [Example 659, ((1S,2R)-2-(4-((2-(3,5-dichloro-4-pyridinyl)-2-oxoethyl)(2,2-dimethylpropyl)carbamoyl)-5-(trifluoromethyl)-1H-pyrazol-1-yl)cyclohexyl)acetic acid] |
| 3.31 nM | CC1(CN(CC(=O)c2c(Cl)cncc2Cl)C(=O)c2cnn([C@H]3CC[C@](C)(C(=O)O)CC3)c2C(F)(F)F)CCCCC1 [Example 588, trans-4-(4-((2-(3,5-dichloro-4-pyridinyl)-2-oxoethyl)((1-methylcyclohexyl)methyl)carbamoyl)-5-(trifluoromethyl)-1H-pyrazol-1-yl)-1-methylcyclohexanecarboxylic acid] |
| 4.07 nM | C[C@]1(C(=O)O)CC[C@H](n2ncc(C(=O)N(CC(=O)c3c(Cl)cccc3Cl)CC3(F)CC4(CC4)C3)c2C(F)(F)F)CC1 [Example 713, (1r,4r)-4-(4-((2-(2,6-dichlorophenyl)-2-oxoethyl)((5-fluorospiro[2.3]hexan-5-yl)methyl)carbamoyl)-5-(trifluoromethyl)-1H-pyrazol-1-yl)-1-methylcyclohexanecarboxylic acid] |
| 9.12 nM | C[C@]1(CN(CC(=O)c2c(Cl)ccc(F)c2Cl)C(=O)c2cnn([C@H]3CC[C@](C)(C(=O)O)CC3)c2C(F)(F)F)CCCO1 [Example 814, trans-4-(4-((2-(2,6-dichloro-3-fluorophenyl)-2-oxoethyl)(((2R)-2-methyltetrahydro-2-furanyl)methyl)carbamoyl)-5-(trifluoromethyl)-1H-pyrazol-1-yl)-1-methylcyclohexanecarboxylic acid] |
| 871 nM | CC1(C)CC[C@H]1N(CC(=O)c1c(Cl)cncc1Cl)C(=O)c1cnn([C@H]2CC[C@@H](C(=O)O)CC2)c1C(F)(F)F [Example 634, cis-4-(4-((2-(3,5-dichloro-4-pyridinyl)-2-oxoethyl)((1R)-2,2-dimethylcyclobutyl)carbamoyl)-5-(trifluoromethyl)-1H-pyrazol-1-yl)cyclohexanecarboxylic acid] |
| 12 nM | CC1(C)CC[C@H](CN(CCc2c(Cl)cncc2Cl)C(=O)c2cnn([C@H]3CC[C@](C)(C(=O)O)CC3)c2C(F)(F)F)O1 [Example 679, trans-4-(4-((2-(3,5-dichloro-4-pyridinyl)ethyl)(((2R)-5,5-dimethyltetrahydro-2-furanyl)methyl)carbamoyl)-5-(trifluoromethyl)-1H-pyrazol-1-yl)-1-methylcyclohexanecarboxylic acid] |
| 7.08 nM | CC1(C)CC(CN(CC(=O)c2c(Cl)cncc2Cl)C(=O)c2cnn([C@H]3CC[C@](C)(C(=O)O)CC3)c2C(F)(F)F)C1 [Example 559, trans-4-(4-((2-(3,5-dichloro-4-pyridinyl)-2-oxoethyl)((3,3-dimethylcyclobutyl)methyl)carbamoyl)-5-(trifluoromethyl)-1H-pyrazol-1-yl)-1-methylcyclohexanecarboxylic acid] |
